Here are results for 24 molecules from US11208404B2 (PERENNA PHARMACEUTICALS, INC., priority 2017, dated 2021).

Read-outs that look alike come from different tables or passages of the source.

The target in test [1] is T1, ALCAT1 (Homo sapiens (Human), UniProt Q6UWP7). The test can be described thus: Cell-based assay for ALCAT inhibitor compounds (H9C2 cells). The conditions noted are these: H9c2, 3 μM compound; H9C2 vector cell line and H9C2 with stable overexpression of ALCAT1. On the procedure: The assay was performed on the H9C2 vector cell line and H9C2 with stable overexpression of ALCAT1. Materials used in the protocol were CoA, LPG, compounds, chloroform, methanol, 0.9% KCl, 6-well-plates, 1.5 mL tubes, DMEM, FBS, P/S and PBS.
Cells were seeded in 6-well-plates, 8×10^5 cells/well, and cultured at 37° C. in 5% CO2 overnight.
Cells were washed once with ice-cold PBS, collected in ice-cold PBS and centrifuged at 5000 rpm for 5 min at 4° C. 200 μL of chloroform: methanol (2:1) was added to the cell pellet, which was vortexed to suspend the cells and incubated at RT for 1 hr.
40 μL of 0.9% KCl was added and the sample was vortexed before centrifugation at 10000 rpm for 5 min at RT. The aqueous phase (upper layer) was discarded and the organic phase (lower layer) was loaded to a TLC plate (10 cm×20 cm), 40 μL/sample.
The plates were developed in chloroform: methanol: water (65:25:4) for about 30 min and scanned using a Typhoon Scanner. The bands intensity was analysed using ImageJ and the inhibition activity of the tested compounds was calculated.
Compound inhibitors for ALCAT1 enzyme were analyzed by an in vitro cell-based assay as detailed above.
Target sequence in this assay (Q6UWP7 whole entry, species assumed): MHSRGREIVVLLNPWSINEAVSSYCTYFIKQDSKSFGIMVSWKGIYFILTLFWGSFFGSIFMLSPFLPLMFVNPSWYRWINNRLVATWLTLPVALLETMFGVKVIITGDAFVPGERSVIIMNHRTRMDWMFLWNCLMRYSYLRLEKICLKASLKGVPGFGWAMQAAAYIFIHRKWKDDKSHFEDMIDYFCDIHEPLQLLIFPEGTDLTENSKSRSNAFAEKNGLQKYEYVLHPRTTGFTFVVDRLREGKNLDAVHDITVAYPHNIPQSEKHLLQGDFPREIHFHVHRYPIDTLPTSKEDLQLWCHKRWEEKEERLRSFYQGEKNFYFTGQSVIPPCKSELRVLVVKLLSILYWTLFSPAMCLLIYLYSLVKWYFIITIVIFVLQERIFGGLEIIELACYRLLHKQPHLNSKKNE

In test [2] the target is T1, ALCAT1. The test can be described thus: In vitro acyltransferase assay for ALCAT1 inhibitors. The conditions noted are these: for % inh @ 1 μM / inhibition at 1 µM: 1 μM compound; for % inh @ 1 μM / inhibition at 1 µM / inhibition at 10 µM: in vitro enzymatic assay; for IC50: ALCAT1 enzyme activity; for inhibition at 10 µM: 10 μM compound. Type of test: biochemical. The method, boiled down: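 Membrane fractions from Sf9 cells expressing human ALCAT1 incubated 30 min at room temperature with 100 µM MLCL or LPG and 25 µM [14C]acyl-CoA (or 100 µM NBD-CoA) in 50 mM Tris/HCl pH 7.0.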
Target sequence in this assay (Q6UWP7 whole entry): as the sequence (Q6UWP7 whole entry, species assumed) above

Setting [3] is: read-out: IC50 values (upper bounds).
Setting [4] is: triplicates, GraphPad, read-out: IC50.

For orientation: inhibition means the change of the read-out against control, counted positive when it falls. High values mean a response far below the control, low ones a response near the control. By IC50 is commonly meant the concentration at which inhibition is half-maximal. `CCOc1ccc(Cl)cc1C(=O)Nc1cc(-c2nnc(-c3ccco3)o2)ccc1F` [Compound 216, 5-chloro-2-ethoxy-N-(2-fluoro-5-(5-(furan-2-yl)-1,3,4-oxadiazol-2-yl)phenyl)benzamide] displayed an inhibition at 3 µM against ALCAT1 [1] of 45%. Also, the “% inh @ 1 μM” value on ALCAT1 [2] is reported as 100/100%. The inhibition at 1 µM on ALCAT1 [2] was 100%. For the same molecule, the IC50 on ALCAT1 [2] (setting [3]) was < 100 nM; at ALCAT1 [2] (setting [4]) it was 19 nM.

The molecule `COc1ccc(OC(F)(F)F)cc1C(=O)Nc1cc(-c2nnc(-c3ccco3)o2)ccn1` [Compound 400, N-(4-(5-(Furan-2-yl)-1,3,4-oxadiazol-2-yl)pyridin-2-yl)-2-methoxy-5-(trifluoromethoxy)benzamide] displayed an inhibition at 3 µM against ALCAT1 [1] of 50%. Also, the inhibition at 1 µM against ALCAT1 [2] came out at 96%. Besides, the half-maximal inhibitory concentration (IC50) at ALCAT1 [2] (setting [4]) is 62 nM.

Turning to `CCOc1ccc(CC)cc1C(=O)Nc1cc(-c2nnc(-c3ccco3)o2)ccc1F` [Compound 222, 2-Ethoxy-5-ethyl-N-(2-fluoro-5-(5-(furan-2-yl)-1,3,4-oxadiazol-2-yl)phenyl)benzamide], the inhibition at 3 µM against ALCAT1 [1] is 85%. At ALCAT1 [2], the “% inh @ 1 μM” value amounted to 97%. Further, at 1 µM the inhibition against ALCAT1 [2] was 100%. In addition, the half-maximal inhibitory concentration (IC50) on ALCAT1 [2] (setting [3]) is < 35 nM; on ALCAT1 [2] (setting [4]), 8 nM.

For the molecule `COc1ccc(C)cc1C(=O)Nc1cc(-c2nnc(-c3ccco3)o2)ccc1F` [Compound 300, N-(2-Fluoro-5-(5-(furan-2-yl)-1,3,4-oxadiazol-2-yl)phenyl)-2-methoxy-5-methylbenzamide], on ALCAT1 [1], the inhibition at 3 µM was found to be 31%. At ALCAT1 [2], 1 µM produced 96% inhibition. Besides, the IC50 is < 100 nM on ALCAT1 [2] (setting [3]) and 30 nM on ALCAT1 [2] (setting [4]).

Regarding `COc1ccc(C(F)(F)F)cc1C(=O)Nc1cc(-c2nnc(-c3ccco3)o2)ccn1` [Compound 396, N-(4-(5-(Furan-2-yl)-1,3,4-oxadiazol-2-yl)pyridin-2-yl)-2-methoxy-5-(trifluoromethyl)benzamide], at ALCAT1 [1], the inhibition at 3 µM was found to be 45%. Moreover, at 1 µM the inhibition on ALCAT1 [2] was 96%. Moreover, the concentration for half-maximal inhibition (IC50) on ALCAT1 [2] (setting [4]) is 78 nM.

Molecule `O=C(Nc1cc(-c2nnc(-c3ccco3)o2)ccc1F)c1cc(Cl)ccc1OCCF` [Compound 318, 5-Chloro-N-(2-fluoro-5-(5-(furan-2-yl)-1,3,4-oxadiazol-2-yl)phenyl)-2-(2-fluoroethoxy)benzamide] registered an inhibition at 3 µM against ALCAT1 [1] of 36%. Also, on ALCAT1 [2], the inhibition at 1 µM turned out to be 98%. Also, the IC50 at ALCAT1 [2] (setting [3]) is < 100 nM; on ALCAT1 [2] (setting [4]), 24 nM.

For `Cc1ccc(OCC(F)(F)F)c(C(=O)Nc2cc(-c3nnc(-c4ccco4)o3)ccc2F)c1` [Compound 322, N-(2-fluoro-5-(5-(furan-2-yl)-1,3,4-oxadiazol-2-yl)phenyl)-5-methyl-2-(2,2,2-trifluoroethoxy)benzamide], the inhibition at 3 µM against ALCAT1 [1] was determined as 26%. At ALCAT1 [2], at 1 µM the inhibition was 94%. For the same molecule, the concentration for half-maximal inhibition (IC50) on ALCAT1 [2] (setting [4]) was 61 nM.

For `COc1c(Br)cc(Br)cc1C(=O)Nc1cccc(-c2nnc(-c3ccco3)o2)c1` [Compound 168, 3,5-Dibromo-N-(3-(5-(furan-2-yl)-1,3,4-oxadiazol-2-yl)phenyl)-2-methoxybenzamide], the inhibition at 3 µM against ALCAT1 [1] was 27%. On ALCAT1 [2], this molecule yielded an inhibition at 1 µM of 100% and an inhibition at 10 µM of 100%. On ALCAT1 [2] (setting [4]), the 50% inhibitory concentration (IC50) stood at 48 nM.

In the case of `O=C(Nc1cc(-c2nnc(-c3ccco3)o2)ccc1F)c1ccccc1OCC(F)(F)F` [Compound 313, N-(2-Fluoro-5-(5-(furan-2-yl)-1,3,4-oxadiazol-2-yl)phenyl)-2-(2,2,2-trifluoroethoxy)benzamide], the inhibition at 3 µM against ALCAT1 [1] is 19%. This molecule returned an inhibition at 1 µM on ALCAT1 [2] of 94%. Further, at ALCAT1 [2] (setting [4]), the IC50 was determined as 64 nM.

At ALCAT1 [1], `O=C(Nc1cc(-c2nnc(-c3ccco3)o2)ccc1F)c1cc(Cl)ccc1OCC(F)F` [Compound 317, 5-Chloro-2-(2,2-difluoroethoxy)-N-(2-fluoro-5-(5-(furan-2-yl)-1,3,4-oxadiazol-2-yl)phenyl)benzamide] came in with an inhibition at 3 µM of 52%. In addition, at ALCAT1 [2], the inhibition at 1 µM stood at 96%. Besides, the IC50 is < 100 nM on ALCAT1 [2] (setting [3]) and 19 nM at ALCAT1 [2] (setting [4]).

At ALCAT1 [1], `O=C(Nc1cc(-c2nnc(-c3ccco3)o2)ccc1F)c1cc(Cl)ccc1OC(F)F` [Compound 305, 5-Chloro-2-(difluoromethoxy)-N-(2-fluoro-5-(5-(furan-2-yl)-1,3,4-oxadiazol-2-yl)phenyl)benzamide] yielded an inhibition at 3 µM of 34%. Moreover, testing at 1 µM on ALCAT1 [2] gave an inhibition of 100%. The values for the IC50 at ALCAT1 [2] (setting [3]) and at ALCAT1 [2] (setting [4]) were < 100 nM and 21 nM, respectively.

As for `O=C(Nc1cc(-c2nnc(-c3ccco3)o2)ccc1F)c1cc(F)ccc1OCC(F)F` [Compound 320, 2-(2,2-Difluoroethoxy)-5-fluoro-N-(2-fluoro-5-(5-(furan-2-yl)-1,3,4-oxadiazol-2-yl)phenyl)benzamide], the inhibition at 3 µM at ALCAT1 [1] is 17%. Moreover, 1 µM produced 96% inhibition against ALCAT1 [2]. Moreover, the half-inhibitory concentration (IC50) on ALCAT1 [2] (setting [3]) was < 100 nM; at ALCAT1 [2] (setting [4]), 34 nM.

Turning to `Cc1ccc(OCC(F)F)c(C(=O)Nc2cc(-c3nnc(-c4ccco4)o3)ccc2F)c1` [Compound 323, 2-(2,2-Difluoroethoxy)-N-(2-fluoro-5-(5-(furan-2-yl)-1,3,4-oxadiazol-2-yl)phenyl)-5-methylbenzamide], the inhibition at 3 µM at ALCAT1 [1] turned out to be 14%. The same molecule registered an inhibition at 1 µM against ALCAT1 [2] of 96%. Besides, the half-inhibitory concentration (IC50) was < 100 nM on ALCAT1 [2] (setting [3]) and 26 nM at ALCAT1 [2] (setting [4]).

The molecule `CCCOc1ccc(Cl)cc1C(=O)Nc1cc(-c2nnc(-c3ccco3)o2)ccc1F` [Compound 209, 5-Chloro-N-(2-fluoro-5-(5-(furan-2-yl)-1,3,4-oxadiazol-2-yl)phenyl)-2-propoxybenzamide] returned an inhibition at 3 µM at ALCAT1 [1] of 37%. At ALCAT1 [2], this molecule returned an inhibition at 1 µM of 100% and an inhibition at 10 µM of 100%. Besides, at ALCAT1 [2] (setting [3]), the 50% inhibitory concentration (IC50) was < 100 nM. Further, the IC50 at ALCAT1 [2] (setting [4]) stood at 25 nM.

Regarding `COc1ccc(OC(F)(F)F)cc1C(=O)Nc1cccc(-c2nnc(-c3ccco3)o2)c1` [Compound 279, N-(3-(5-(Furan-2-yl)-1,3,4-oxadiazol-2-yl)phenyl)-2-methoxy-5-(trifluoromethoxy)benzamide], at ALCAT1 [1], the inhibition at 3 µM was found to be 7%. In addition, the inhibition at 1 µM at ALCAT1 [2] amounted to 97%. In addition, the half-maximal inhibitory concentration (IC50) at ALCAT1 [2] (setting [4]) was 60 nM.

On ALCAT1 [1], `O=C(Nc1cc(-c2nnc(-c3ccco3)o2)ccc1F)c1cc(F)ccc1OCCF` [Compound 312, 5-Fluoro-N-(2-fluoro-5-(5-(furan-2-yl)-1,3,4-oxadiazol-2-yl)phenyl)-2-(2-fluoroethoxy)benzamide] had an inhibition at 3 µM of 4%. Besides, at 1 µM the inhibition on ALCAT1 [2] was 98%. Moreover, the IC50 on ALCAT1 [2] (setting [3]) is < 100 nM; at ALCAT1 [2] (setting [4]) it was 33 nM.

The molecule `CCOc1ccc(CC)cc1C(=O)N(c1cc(-c2nnc(-c3ccco3)o2)ccc1F)P(=O)(O)O` [Compound 497, (2-ethoxy-5-ethylbenzoyl) (2-fluoro-5-(5-(furan-2-yl)-1,3,4-oxadiazol-2-yl)phenyl)phosphoramidic acid] yielded an inhibition at 3 µM against ALCAT1 [1] of 75%. The inhibition at 1 µM against ALCAT1 [2] worked out at 90%. The half-maximal inhibitory concentration (IC50) at ALCAT1 [2] (setting [4]) amounted to 72 nM.

Regarding `COc1ccc(C(F)(F)F)cc1C(=O)Nc1cc(-c2nnc(-c3ccco3)o2)ccc1F` [Compound 416, N-(2-Fluoro-5-(5-(furan-2-yl)-1,3,4-oxadiazol-2-yl)phenyl)-2-methoxy-5-(trifluoromethyl)benzamide], the inhibition at 3 µM against ALCAT1 [1] amounted to 45%. On ALCAT1 [2], this molecule had an inhibition at 1 µM of 98%. Moreover, the values for the IC50 on ALCAT1 [2] (setting [3]) and on ALCAT1 [2] (setting [4]) were < 100 nM and 19 nM, respectively.

In turn, `CCOc1ccc(CC)cc1C(=O)Nc1cccc(-c2nnc(-c3ccco3)o2)c1` [Compound 219, 2-Ethoxy-5-ethyl-N-(3-(5-(furan-2-yl)-1,3,4-oxadiazol-2-yl)phenyl)benzamide] returned an inhibition at 3 µM on ALCAT1 [1] of 22%. Further, on ALCAT1 [2], the “% inh @ 1 μM” value was 98% and the inhibition at 1 µM stood at 99%. In addition, the IC50 on ALCAT1 [2] (setting [3]) was < 100 nM. In addition, the IC50 at ALCAT1 [2] (setting [4]) amounted to 34 nM.

The molecule `CCOc1ccc(CC)cc1C(=O)Nc1cc(-c2nnc(-c3ccco3)o2)ccn1` [Compound 373, 2-Ethoxy-5-ethyl-N-(4-(5-(furan-2-yl)-1,3,4-oxadiazol-2-yl)pyridin-2-yl)benzamide] returned an inhibition at 3 µM against ALCAT1 [1] of 3%. At ALCAT1 [2], this molecule registered an inhibition at 1 µM of 98%. For the same molecule, the IC50 at ALCAT1 [2] (setting [4]) is 38 nM.

On to `COc1ccc(Br)cc1C(=O)Nc1cc(-c2nnc(-c3ccco3)o2)ccc1F` [Compound 183, 5-Bromo-N-(2-fluoro-5-(5-(furan-2-yl)-1,3,4-oxadiazol-2-yl)phenyl)-2-methoxybenzamide], for which the inhibition at 3 µM on ALCAT1 [1] worked out at 62%. Also, at ALCAT1 [2], the “% inh @ 1 μM” value is 100/100% and testing at 1 µM gave an inhibition of 100%. Moreover, the IC50 at ALCAT1 [2] (setting [3]) was < 100 nM. Moreover, the IC50 on ALCAT1 [2] (setting [4]) was found to be 24 nM.

On ALCAT1 [2], `O=C(Nc1cccc(-c2nnc(-c3ccco3)o2)c1)c1cc(Br)ccc1F` [Compound 188] came in with an inhibition at 1 µM of 93% and an inhibition at 10 µM of 100%. For the same molecule, the IC50 at ALCAT1 [2] (setting [4]) stood at 640 nM.

`O=C(Nc1ccc(F)c(-c2nnc(-c3ccco3)o2)c1)c1ccccc1F` [Compound 28] gave an inhibition at 10 µM against ALCAT1 [2] of 51%.

In the case of `CCCCOc1ccccc1C(=O)Nc1cc(-c2nnc(-c3ccco3)o2)ccc1F` [Compound 213], at ALCAT1 [2], the “% inh @ 1 μM” value was found to be 64% and the inhibition at 1 µM was 56%.
